Results reported in patent US9834542B2, “LXR modulators” (BRISTOL-MYERS SQUIBB COMPANY, priority 2013, dated 2017).
pEC50: −log10 of the molar value.

Target: T1, LXRβ (Homo sapiens, UniProt P55055)
T1 construct: Co-transfection expression plasmids, comprising full-length LXRα (pCMX-h LXRα[…] or LXRβ (pCMX-hLXRβ)); expressed in transfected cells; host or cells: CV-1 African Green Monkey Kidney Cells
T1 sequence (P55055 1-460): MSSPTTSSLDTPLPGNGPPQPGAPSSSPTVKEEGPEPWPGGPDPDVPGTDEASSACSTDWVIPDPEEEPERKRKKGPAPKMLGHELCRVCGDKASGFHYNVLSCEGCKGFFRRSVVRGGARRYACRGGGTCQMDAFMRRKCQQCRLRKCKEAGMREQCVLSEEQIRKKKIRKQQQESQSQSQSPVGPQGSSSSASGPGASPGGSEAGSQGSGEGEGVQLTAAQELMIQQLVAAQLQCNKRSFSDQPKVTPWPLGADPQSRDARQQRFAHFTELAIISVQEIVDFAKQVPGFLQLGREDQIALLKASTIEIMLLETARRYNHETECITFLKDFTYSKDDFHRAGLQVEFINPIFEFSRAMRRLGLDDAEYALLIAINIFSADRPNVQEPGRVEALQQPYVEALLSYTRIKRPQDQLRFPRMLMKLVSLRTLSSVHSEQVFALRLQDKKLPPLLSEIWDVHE
T1 sequence (P19793 1-462 partner): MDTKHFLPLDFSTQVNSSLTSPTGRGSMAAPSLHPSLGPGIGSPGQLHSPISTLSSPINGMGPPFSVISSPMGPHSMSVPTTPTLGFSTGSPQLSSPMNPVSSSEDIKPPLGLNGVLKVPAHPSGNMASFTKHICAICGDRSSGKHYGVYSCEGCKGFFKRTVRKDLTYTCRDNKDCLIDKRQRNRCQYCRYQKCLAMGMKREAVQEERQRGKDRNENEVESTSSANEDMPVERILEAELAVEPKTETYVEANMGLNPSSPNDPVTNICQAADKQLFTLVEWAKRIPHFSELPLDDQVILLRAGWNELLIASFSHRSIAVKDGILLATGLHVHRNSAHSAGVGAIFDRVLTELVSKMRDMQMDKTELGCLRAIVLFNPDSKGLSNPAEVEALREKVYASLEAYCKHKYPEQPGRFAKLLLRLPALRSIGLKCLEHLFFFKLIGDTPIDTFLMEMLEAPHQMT
Experiment: Co-transfection assay (LXRE luciferase reporter), LXRβ
Assay type: cell-based
Set-up: % Efficacy: concentration or dose not given beside the values
Settings: for pEC50: CV-1 cells transfected with pCMX-hLXRβ and LXREx1-Tk-Luciferase, 20 hours incubation; for Emax: read-out: % Efficacy
Procedure, shortened: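 CV-1 / pCMX-hLXRβ + LXREx1-Tk-Luc + β-gal; cpd 20 h, 37 °C, ≤0.5% DMSO; Steady-Glo luminescence. 11-pt ½-log curves, duplicate wells, sigmoidal fit → EC50; % efficacy vs high-control agonist, DMSO low control; mean of ≥2 expts.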

[1] = LXRβ co-transfection, relative to high control 1-(2,4-difluorobenzyl)-2-oxo-6-(4-phenoxyphenyl)-4-(trifluoromethyl)-1,2-dihydropyridine-3-carbonitrile

| pEC50 | Emax [1] | % Efficacy [1] | Structure (SMILES) |
| --- | --- | --- | --- |
| 5.71 | 74% |  | Cc1nc(C(F)F)c(C)n1-c1ccc(-c2cccc(S(C)(=O)=O)c2)cc1-n1nncc1-c1ccc(OC(F)(F)F)cc1 [Example 232, 1-(4-(4-(difluoromethyl)-2,5-dimethyl-1H-imidazol-1-yl)-3′-(methylsulfonyl)-[1,1′-biphenyl]-3-yl)-5-(4-(trifluoromethoxy)phenyl)-1H-1,2,3-triazole] |
| 7.13 | 81% |  | Cc1nc(C(F)(F)F)cn1-c1ccc(-c2cc(F)c(CO)c(S(C)(=O)=O)c2)cc1-c1ccnn1-c1ccc(Cl)cc1 [Example 288, {3′-[1-(4-chlorophenyl)-1H-pyrazol-5-yl]-3-fluoro-5-(methylsulfonyl)-4′-[2-methyl-4-(trifluoromethyl)-1H-imidazol-1-yl]biphenyl-4-yl}methanol] |
| 6.11 | 107% |  | Cc1nc(C(F)F)cn1-c1ccc(-c2cccc(S(C)(=O)=O)c2)cc1-n1nncc1-c1ccc2c(c1)OC(F)(F)O2 [Example 167, 5-(2,2-difluoro-1,3-benzodioxol-5-yl)-1-{4-[4-(difluoromethyl)-2-methyl-1H-imidazol-1-yl]-3′-(methylsulfonyl)biphenyl-3-yl}-1H-1,2,3-triazole] |
| 5.77 | 37% |  | Cc1nc(C(F)F)c(C)n1-c1ccc(-c2cc(F)c(CO)c(S(C)(=O)=O)c2)cc1-n1nncc1-c1ccc(Cl)cc1 [Example 231, (3′-(5-(4-chlorophenyl)-1H-1,2,3-triazol-1-yl)-4′-(4-(difluoromethyl)-2,5-dimethyl-1H-imidazol-1-yl)-3-fluoro-5-(methylsulfonyl)-[1,1′-biphenyl]-4-yl)methanol] |
| 5.57 | 81% |  | Cc1nc(C(F)(F)F)cn1-c1ccc(-c2cccc(S(C)(=O)=O)c2)cc1-n1nncc1-c1ccc(C(F)(F)F)nc1 [Example 80, 5-(1-{3′-(methylsulfonyl)-4-[2-methyl-4-(trifluoromethyl)-1H-imidazol-1-yl]biphenyl-3-yl}-1H-1,2,3-triazol-5-yl)-2-(trifluoromethyl)pyridine] |
| 6.59 | 91% |  | Cc1nc(C(F)(F)F)cn1-c1ccc(-c2cccc(S(C)(=O)=O)c2)cc1-n1nncc1-c1ccc(C(F)F)cc1 [Example 5, 5-[4-(difluoromethyl)phenyl]-1-{3′-(methylsulfonyl)-4-[2-methyl-4-(trifluoromethyl)-1H-imidazol-1-yl]biphenyl-3-yl}-1H-1,2,3-triazole] |
| 6.64 | 94% |  | Cc1nc(-c2cc(-c3cccc(S(C)(=O)=O)c3)ccc2-n2cc(C(F)(F)F)nc2C)c(-c2ccc(Cl)nc2Cl)o1 [Example 566, 5-(2,6-dichloropyridin-3-yl)-2-methyl-4-(4-(2-methyl-4-(trifluoromethyl)-1H-imidazol-1-yl)-3′-(methylsulfonyl)-[1,1′-biphenyl]-3-yl)oxazole] |
| 6.11 | 97% |  | Cc1nc(C(F)F)cn1-c1ccc(-c2ccc(CO)c(S(C)(=O)=O)c2)cc1-n1nncc1-c1ccc(OC(F)(F)F)cc1 [Example 159, {4′-[4-(difluoromethyl)-2-methyl-1H-imidazol-1-yl]-3-(methylsulfonyl)-3′-(5-{4-[(trifluoromethyl)oxy]phenyl}-1H-1,2,3-triazol-1-yl)biphenyl-4-yl}methanol] |
| 7.15 | 108% |  | Cc1nc(-c2cc(-c3cccc(S(C)(=O)=O)c3)ccc2-n2cc(C(F)(F)F)nc2C)c(-c2ccc(OC(F)F)cc2)o1 [Example 495, 5-(4-(difluoromethoxy)phenyl)-2-methyl-4-(4-(2-methyl-4-(trifluoromethyl)-1H-imidazol-1-yl)-3′-(methylsulfonyl)biphenyl-3-yl)oxazole] |
| 7.35 |  | 83% | Cc1cc(-c2oc(C)nc2-c2cc(-c3cc(F)c(CO)c(S(C)(=O)=O)c3)ccc2-n2cc(C(F)(F)F)nc2C)cc(Cl)n1 [Example 432, (3′-(5-(2-chloro-6-methylpyridin-4-yl)-2-methyloxazol-4-yl)-3-fluoro-4′-(2-methyl-4-(trifluoromethyl)-1H-imidazol-1-yl)-5-(methylsulfonyl)biphenyl-4-yl)methanol] |
| 6.05 | 68% |  | CNS(=O)(=O)c1cccc(-c2ccc(-n3cc(C(F)F)nc3C)c(-n3nncc3C(C)c3ccc(Cl)cc3)c2)c1 (stereo not drawn) [Example 130, 3′-{5-[1-(4-chlorophenyl)ethyl]-1H-1,2,3-triazol-1-yl}-4′-[4-(difluoromethyl)-2-methyl-1H-imidazol-1-yl]-N-methylbiphenyl-3-sulfonamide] |
| 6.33 | 80% |  | Cc1nc(C(F)(F)F)cn1-c1ccc(-c2cccc(S(C)(=O)=O)c2)cc1-n1nncc1-c1ccc(C(C)C)cc1 [Example 72, 5-[4-(1-methylethyl)phenyl]-1-{3′-(methylsulfonyl)-4-[2-methyl-4-(trifluoromethyl)-1H-imidazol-1-yl]biphenyl-3-yl}-1H-1,2,3-triazole] |
| 5.99 | 159% |  | Cc1nc(C(F)F)c(Cl)n1-c1ccc(-c2cccc(S(C)(=O)=O)c2)cc1-n1nncc1-c1ccc(OC(F)(F)F)cc1 [Example 172, 1-{4-[5-chloro-4-(difluoromethyl)-2-methyl-1H-imidazol-1-yl]-3′-(methylsulfonyl)biphenyl-3-yl}-5-{4-[(trifluoromethyl)oxy]phenyl}-1H-1,2,3-triazole] |
| 5.97 | 43% |  | COc1ccc(-c2cnnn2-c2cc(-c3cccc(S(C)(=O)=O)c3)ccc2-n2cc(C(F)(F)F)nc2C)cc1OC(F)F [Example 42, 5-{3-[(difluoromethyl)oxy]-4-(methyloxy)phenyl}-1-{3′-(methylsulfonyl)-4-[2-methyl-4-(trifluoromethyl)-1H-imidazol-1-yl]biphenyl-3-yl}-1H-1,2,3-triazole] |
| 6.92 | 53% |  | Cc1nc(-c2cc(-c3cccc(S(C)(=O)=O)c3)ccc2-n2cc(C(F)(F)F)nc2C)c(-c2ccc3c(c2)CCC3)o1 [Example 474, 5-(2,3-dihydro-1H-inden-5-yl)-2-methyl-4-(4-(2-methyl-4-(trifluoromethyl)-1H-imidazol-1-yl)-3′-(methylsulfonyl)biphenyl-3-yl)oxazole] |
| 6.86 | 91% |  | Cc1nc(C(F)(F)F)cn1-c1ccc(-c2cc(F)c(CO)c(S(C)(=O)=O)c2)cc1-c1ocnc1-c1ccc(OC(F)(F)F)cc1 [Example 359, [3-fluoro-5-(methylsulfonyl)-4′-[2-methyl-4-(trifluoromethyl)-1H-imidazol-1-yl]-3′-(4-{4-[(trifluoromethyl)oxy]phenyl}-1,3-oxazol-5-yl)biphenyl-4-yl]methanol] |
| 7.05 | 100% |  | Cc1nc(-c2ccc(Cl)cc2Cl)c(-c2cc(-c3cccc(S(C)(=O)=O)c3)ccc2-n2cc(C(F)(F)F)nc2C)o1 [Example 608, 4-(2,4-dichlorophenyl)-2-methyl-5-(4-(2-methyl-4-(trifluoromethyl)-1H-imidazol-1-yl)-3′-(methylsulfonyl)-[1,1′-biphenyl]-3-yl)oxazole] |
| 6.90 | 74% |  | Cc1nc(-c2cc(-c3cc(F)c(CO)c(S(C)(=O)=O)c3)ccc2-n2cc(C(F)(F)F)nc2C)c(-c2ccc3c(c2)OCCO3)o1 [Example 444, (3′-(5-(2,3-dihydrobenzo[b][1,4]dioxin-6-yl)-2-methyloxazol-4-yl)-3-fluoro-4′-(2-methyl-4-(trifluoromethyl)-1H-imidazol-1-yl)-5-(methylsulfonyl)biphenyl-4-yl)methanol] |
